Reference: patent US20260258035A1, “FIVE-MEMBERED AND SIX-MEMBERED NITROGEN-CONTAINING COMPOUND, AND INTERMEDIATE, PREPARATION METHOD AND USE THEREOF” (HANGZHOU SYNRX THERAPEUTICS BIOMEDICAL TECHNOLOGY CO., LTD., priority 2022, published 2026)

Assays:
PARG = PARG (Homo sapiens, UniProt Q86W56); experiment: Biochemical assay (PARG, TFMU-ADPr substrate); details: PARG, TFMU-ADPr substrate
HCC1806 = experiment: Cell viability assay (CellTiter-Glo); type: cell-based, Human; details: Homo sapiens, HCC1806, 168 h, HCC1806, 7 days, CellTiter-Glo; read-out: IC50 (nM) in cell viability assay

Sequence of PARG (Q86W56 whole entry): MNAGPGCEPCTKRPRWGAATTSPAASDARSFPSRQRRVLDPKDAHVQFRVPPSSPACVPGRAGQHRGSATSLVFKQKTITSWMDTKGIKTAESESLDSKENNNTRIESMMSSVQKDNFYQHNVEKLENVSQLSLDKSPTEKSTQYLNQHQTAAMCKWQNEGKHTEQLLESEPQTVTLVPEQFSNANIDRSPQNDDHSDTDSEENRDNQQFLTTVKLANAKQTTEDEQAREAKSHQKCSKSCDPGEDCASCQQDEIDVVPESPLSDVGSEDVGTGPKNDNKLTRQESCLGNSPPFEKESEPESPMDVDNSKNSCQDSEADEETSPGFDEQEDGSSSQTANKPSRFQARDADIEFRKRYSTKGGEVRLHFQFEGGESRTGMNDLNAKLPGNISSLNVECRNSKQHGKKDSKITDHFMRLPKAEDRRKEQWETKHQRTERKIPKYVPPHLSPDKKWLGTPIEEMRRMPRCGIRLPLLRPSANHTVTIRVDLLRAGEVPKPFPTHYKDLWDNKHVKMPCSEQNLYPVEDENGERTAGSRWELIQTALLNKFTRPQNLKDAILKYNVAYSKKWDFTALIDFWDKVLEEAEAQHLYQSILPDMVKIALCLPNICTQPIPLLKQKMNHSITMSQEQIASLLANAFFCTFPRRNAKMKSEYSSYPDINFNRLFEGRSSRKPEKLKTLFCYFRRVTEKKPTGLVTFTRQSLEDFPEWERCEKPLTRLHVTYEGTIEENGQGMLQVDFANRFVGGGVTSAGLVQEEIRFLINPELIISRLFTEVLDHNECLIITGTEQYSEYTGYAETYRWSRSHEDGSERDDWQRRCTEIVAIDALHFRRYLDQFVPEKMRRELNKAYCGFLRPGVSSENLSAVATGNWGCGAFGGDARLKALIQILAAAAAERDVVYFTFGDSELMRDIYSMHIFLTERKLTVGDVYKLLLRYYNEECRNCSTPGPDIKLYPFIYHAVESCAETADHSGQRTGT

Row | SMILES | IC50 (PARG) [nM] | IC50 (HCC1806) [nM]
1 | N#CC1(NS(=O)(=O)c2cc(N3CCN(C(=O)c4ccno4)CC3)c3cnc(-c4nnc(C(F)(F)F)s4)n3c2)CC1 [Example 255, N-(1-cyanocyclopropyl)-8-(4-(isoxazole-5-carbonyl)piperazin-1-yl)-3-(5-(trifluoromethyl)-1,3,4-thiadiazol-2-yl)imidazo[1,5-a]pyridine-6-sulfonamide] | 17.4 | 420
2 | CCC(=O)C1CCN(c2cc(S(=O)(=O)NC3(C#N)CC3)cn3c(-c4nnc(C(F)(F)F)s4)ncc23)CC1 [Example 258, N-(1-cyanocyclopropyl)-8-(4-propionylpiperidin-1-yl)-3-(5-(trifluoromethyl)-1,3,4-thiadiazol-2-yl)imidazo[1,5-a]pyridine-6-sulfonamide] | 550 | 2830
3 | N#CC1(NS(=O)(=O)c2cc(N3CCN(C(=O)C(O)C(F)(F)F)CC3)c3cnc(-c4nnc(C(F)F)s4)n3c2)CC1 (stereo not shown) [Example 261, N-(1-cyanocyclopropyl)-3-(5-(difluoromethyl)-1,3,4-thiadiazol-2-yl)-8-(4-(3,3,3-trifluoro-2-hydroxypropanoyl)piperazin-1-yl)imidazo[1,5-a]pyridine-6-sulfonamide] | 100 | 370
4 | N#CC1(NS(=O)(=O)c2cc(N3CCN(C(=O)[C@H]4CCN4)CC3)c3cnc(-c4nnc(C(F)(F)F)s4)n3c2)CC1 [Example 264, (R)-8-(4-(azetidine-2-carbonyl)piperazin-1-yl)-N-(1-cyanocyclopropyl)-3-(5-(trifluoromethyl)-1,3,4-thiadiazol-2-yl)imidazo[1,5-a]pyridine-6-sulfonamide] | 75.9 | 6640
5 | N#CC1(NS(=O)(=O)c2cc(N3CCN(C(=O)[C@H]4CCCN4)CC3)c3cnc(-c4nnc(C(F)(F)F)s4)n3c2)CC1 [Example 265, (R)-N-(1-cyanocyclopropyl)-8-(4-prolylpiperazin-1-yl)-3-(5-(trifluoromethyl)-1,3,4-thiadiazol-2-yl)imidazo[1,5-a]pyridine-6-sulfonamide] | 158 | 8000
6 | CC(C)C(=O)NC1CCN(c2cc(S(=O)(=O)NC3(C#N)CC3)cn3c(-c4nnc(C(F)(F)F)s4)ncc23)CC1 [Example 268, N-(1-(6-(N-(1-cyanocyclopropyl)sulfamoyl)-3-(5-(trifluoromethyl)-1,3,4-thiadiazol-2-yl)imidazo[1,5-a]pyridin-8-yl)piperidin-4-yl)isobutyramide] | 100 | 2210
7 | N#CC1(NS(=O)(=O)c2cc(N3CCN(C(=O)[C@@H]4CCCN4)CC3)c3cnc(-c4nnc(C(F)(F)F)s4)n3c2)CC1 [Example 270, (S)-N-(1-cyanocyclopropyl)-8-(4-prolylpiperazin-1-yl)-3-(5-(trifluoromethyl)-1,3,4-thiadiazol-2-yl)imidazo[1,5-a]pyridine-6-sulfonamide] | 91.2 | 35900
8 | N#CC1(NS(=O)(=O)c2cc(N3CCN(C(=O)[C@@H]4CCNC4)CC3)c3cnc(-c4nnc(C(F)(F)F)s4)n3c2)CC1 [Example 271, (R)-N-(1-cyanocyclopropyl)-8-(4-(pyrrolidine-3-carbonyl)piperazin-1-yl)-3-(5-(trifluoromethyl)-1,3,4-thiadiazol-2-yl)imidazo[1,5-a]pyridine-6-sulfonamide] | 11.5 | 36200
9 | N#CC1(NS(=O)(=O)c2cc(N3CCN(C(=O)[C@H]4CCNC4)CC3)c3cnc(-c4nnc(C(F)(F)F)s4)n3c2)CC1 [Example 272, (S)-N-(1-cyanocyclopropyl)-8-(4-(pyrrolidine-3-carbonyl)piperazin-1-yl)-3-(5-(trifluoromethyl)-1,3,4-thiadiazol-2-yl)imidazo[1,5-a]pyridine-6-sulfonamide] | 7.24 | 5410
10 | N#CC1(NS(=O)(=O)c2cc(N3CCN(C(=O)C4CC(N)C4)CC3)c3cnc(-c4nnc(C(F)(F)F)s4)n3c2)CC1 (stereo not shown) [Example 273, 8-(4-(3-aminocyclobutane-1-carbonyl)piperazin-1-yl)-N-(1-cyanocyclopropyl)-3-(5-(trifluoromethyl)-1,3,4-thiadiazol-2-yl)imidazo[1,5-a]pyridine-6-sulfonamide] | 1.91 | 5940

Further lines, results first:

Row | IC50 (PARG) [nM] | IC50 (HCC1806) [nM] | SMILES
11 | 57.5 | 1000 | N#CC1(NS(=O)(=O)c2cc(N3CCN(C(=O)CCC(=O)O)CC3)c3cnc(-c4nnc(C(F)(F)F)s4)n3c2)CC1 [Example 253, 4-(4-(6-(N-(1-cyanocyclopropyl)sulfamoyl)-3-(5-(trifluoromethyl)-1,3,4-thiadiazol-2-yl)imidazo[1,5-a]pyridin-8-yl)piperazin-1-yl)-4-oxobutanoic acid]
12 | 8.71 | 80 | CC#CC(C)(O)C(=O)N1CCN(c2cc(S(=O)(=O)NC3(C#N)CC3)cn3c(-c4nnc(C(F)(F)F)s4)ncc23)CC1 (stereo not shown) [Example 256, N-(1-cyanocyclopropyl)-8-(4-(2-hydroxy-2-methylpent-3-ynoyl)piperazin-1-yl)-3-(5-(trifluoromethyl)-1,3,4-thiadiazol-2-yl)imidazo[1,5-a]pyridine-6-sulfonamide]
13 | 191 | 2110 | CC(O)(C#Cc1ccccc1)C(=O)N1CCN(c2cc(S(=O)(=O)NC3(C#N)CC3)cn3c(-c4nnc(C(F)(F)F)s4)ncc23)CC1 (stereo not shown) [Example 257, N-(1-cyanocyclopropyl)-8-(4-(2-hydroxy-2-methyl-4-phenylbut-3-ynoyl)piperazin-1-yl)-3-(5-(trifluoromethyl)-1,3,4-thiadiazol-2-yl)imidazo[1,5-a]pyridine-6-sulfonamide]
14 | 45.7 | 1500 | CC(CO)C(=O)N1CCN(c2cc(S(=O)(=O)NC3(C#N)CC3)cn3c(-c4nnc(C(F)(F)F)s4)ncc23)CC1 (stereo not shown) [Example 259, N-(1-cyanocyclopropyl)-8-(4-(3-hydroxy-2-methylpropanoyl)piperazin-1-yl)-3-(5-(trifluoromethyl)-1,3,4-thiadiazol-2-yl)imidazo[1,5-a]pyridine-6-sulfonamide]
15 | 28.8 | 250 | COC(C)C(=O)N1CCN(c2cc(S(=O)(=O)NC3(C#N)CC3)cn3c(-c4nnc(C(F)(F)F)s4)ncc23)CC1 (stereo not shown) [Example 260, N-(1-cyanocyclopropyl)-8-(4-(2-methoxypropanoyl)piperazin-1-yl)-3-(5-(trifluoromethyl)-1,3,4-thiadiazol-2-yl)imidazo[1,5-a]pyridine-6-sulfonamide]
16 | 132 | 370 | CN(C)C1(C(=O)N2CCN(c3cc(S(=O)(=O)NC4(C#N)CC4)cn4c(-c5nnc(C(F)(F)F)s5)ncc34)CC2)CC1 [Example 266, N-(1-cyanocyclopropyl)-8-(4-(1-(dimethylamino)cyclopropane-1-carbonyl)piperazin-1-yl)-3-(5-(trifluoromethyl)-1,3,4-thiadiazol-2-yl)imidazo[1,5-a]pyridine-6-sulfonamide]
17 | 79.4 | 20000 | N#CC1(NS(=O)(=O)c2cc(N3CCN(C(=O)[C@@H]4CCN4)CC3)c3cnc(-c4nnc(C(F)(F)F)s4)n3c2)CC1 [Example 269, (S)-8-(4-(azetidine-2-carbonyl)piperazin-1-yl)-N-(1-cyanocyclopropyl)-3-(5-(trifluoromethyl)-1,3,4-thiadiazol-2-yl)imidazo[1,5-a]pyridine-6-sulfonamide]
